From paper PMC9398908, “GLP-1-mediated delivery of tesaglitazar improves obesity and glucose metabolism in male mice” (Nature Metabolism, 2022)
Where “and” joins values, the source holds several entries; their conditions need not be identical. Equal values may be shown once.

Legend:
[1] = tested on: Fabp4, Plin2, Arntl, Sema3c; assay: PPAR target gene expression in liver (Fabp4, Plin2) and skeletal muscle (Arntl, Sema3c) of DIO mice (Fig. 2j–m); format: in vivo, mouse
Experimental: For assessment of acute drug effects, animals were treated with the respective compounds 4 h before tissue harvesting. Dissected tissues were frozen immediately on dry ice, and RNA was isolated using RNeasy Mini Kits (Qiagen). mRNA levels were determined using TaqMan probes for fatty acid binding protein 4 (Fabp4, Mm00445878_m1), perilipin-2 (Plin2, Mm00475794_m1), aryl hydrocarbon receptor nuclear translocator-like protein 1 (Arntl, Mm00500223_m), semaphorin 3 C (Sema3c, Mm00443121_m1) and hypoxanthine phosphoribosyltransferase 1 (Hprt, Mm03024075_m1) in custom-made low density array cards (Thermo Fisher) or in single assays on a QuantStudio 7 Real-Time PCR system. Target gene expression was normalized to HPRT and fold change was calculated relative to vehicle-treated controls.

db/db mice = assay: 4-day treatment of obese db/db mice (50 nmol/kg/day): body weight, food intake, glucose, tolerance test (Fig. 6); format: in vivo, mouse; set-up: blood glucose (legend: change in blood glucose) / AOC: unit not given here; conditions: 4 days, 50 nmol kg−1 per day, individual mice
Experimental: Glp1r^−/− mice were kindly provided by D. Drucker (University of Toronto, Canada). All wildtype and knockout mice used in our studies were in-house bred on a C57BL/6J background. Mice were double-housed and kept in a constant environment with the ambient temperature set to 22 ± 2 °C with constant humidity (45–65%) and a 12 h/12 h light/dark cycle with lights off from 06:00 until 18:00. For studies in DIO mice, male C57BL/6J mice were fed with a high-fat diet comprising 58% kilocalories from fat (D12331, Research Diets). db/db mice were fed with a normal chow diet (T1314, Altromin GmbH) throughout the study. At the beginning of each experiment, mice were equally distributed into experimental groups according to their body weight and body composition. All animal studies were approved by the State of Bavaria, Germany, or the Insitutional Animal Care and Use Committee of the University of Cincinnati, OH, USA and conducted on the basis of the underlying animal welfare law of the respective countries. Compounds were dissolved in PBS and were s.c. administered with a volume of 5 μl g^−1 body weight in the indicated doses between 15:00 and 16:00.
Glucose tolerance was assessed in 6 h fasted mice after i.p injection of 1.75 g glucose per kg body weight (DIO mice). Insulin tolerance was assessed in 6 h fasted mice after i.p. injection of either 0.75 U Insulin per […] body weight (DIO mice) or 1 U Insulin per […] body weight (db/db mice) (Humalog, Eli Lilly). Tail vein blood glucose was subsequently measured using a handheld glucometer (TheraSense Freestyle) at baseline and after 15, 30, 60 and 120 min.

Structure (SMILES): CCO[C@@H](Cc1ccc(OCCc2ccc(OS(C)(=O)=O)cc2)cc1)C(=O)O [tesaglitazar, (S)-2-ethoxy-3-(4-(4-((methylsulfonyl)oxy)phenethoxy)phenyl) propanoic acid]
- expression of known PPAR target genes in liver (Fabp4, Plin2) and skeletal muscle (Arntl, Sema3c) ([1]; 30-week-old male DIO mice, 3 days, 50 nmol kg−1 per day, Fig. 2j–m, in words): induced expression of known PPAR target genes
- Fabp4 ([1]; DIO mice, Figure 2j, gene expression in liver, individual mice): 8.80 and 6.98 and 3.76 and 4.88 and 3.64 and 11.43 and 6.16 and 1.27
- Plin2 ([1]; DIO mice, Figure 2k, gene expression in liver, individual mice): 1.24 and 1.51 and 1.57 and 2.00 and 1.99 and 2.32 and 2.01 and 1.45
- Arntl ([1]; DIO mice, Figure 2l, gene expression in skeletal muscle, individual mice, sheet notes an outlier based on grubbs test): 1.55 and 1.75 and 2.01 and 1.16 and 1.39 and 1.34 and 1.60 and 1.28
- Sema3c ([1]; DIO mice, Figure 2m, gene expression in skeletal muscle, individual mice, sheet notes an outlier based on grubbs test): 1.70 and 1.69 and 1.38 and 1.05 and 1.02 and 1.72 and 1.95 and 2.14
- blood glucose (plasma glucose) (db/db mice; Fig. 6c): 482 and 462 and 314 and 500 and 452 and 446
- AOC (db/db mice; Fig. 6f, baseline-corrected): 9 and 124.5 and 63.27 and 252.8 and 257.2 and 64
- blood glucose (legend: change in blood glucose) (db/db mice; Fig. 6d): 33 and 120 and -49 and 69 and 52 and 7
